Source: US20260034111A1, “NOVEL HETEROCYCLES AS sPLA2-X INHIBITORS” (Cayman Chemical Company Incorporated, priority 2022, published 2026)
Counter-ions that a name gives are not always drawn.

Columns and labels:
sPLA2-X protein [1] = biological target: T1, sPLA2-X protein (Homo sapiens, UniProt O15496); test: sPLA2-X enzyme inhibition assay (thio-PC substrate, DTNB detection, absorbance 410 nm); assay type: biochemical; set-up: made in house; host or cells: E. coli; conditions: class symbols; read-out: sPLA2 Type X Inhibition (IC50; nM)
T1 sequence (O15496 43-165): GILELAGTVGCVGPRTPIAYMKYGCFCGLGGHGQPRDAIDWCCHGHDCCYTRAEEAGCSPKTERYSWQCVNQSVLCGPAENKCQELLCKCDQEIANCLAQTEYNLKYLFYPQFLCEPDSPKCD

[2] = biological target: T2, recombinant human sPLA2-IIA enzyme (Homo sapiens, UniProt P14555); test: sPLA2-IIA enzyme inhibition assay (thio-PC substrate, DTNB detection, absorbance 410 nm); assay type: biochemical; conditions: class symbols; read-out: sPLA2 Type IIa Inhibition (IC50; nM)
T2 construct: made in house; host or cells: E. coli
T2 sequence (P14555 21-144): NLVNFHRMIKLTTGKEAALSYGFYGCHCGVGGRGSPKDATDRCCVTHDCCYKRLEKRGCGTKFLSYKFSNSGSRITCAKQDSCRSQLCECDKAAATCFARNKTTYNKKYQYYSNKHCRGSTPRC

[3] = biological target: T3, recombinant human sPLA2-V enzyme (Homo sapiens, UniProt P39877); test: sPLA2-V enzyme inhibition assay (thio-PC substrate, DTNB detection, absorbance 410 nm); assay type: biochemical; conditions: class symbols; read-out: sPLA2 Type V Inhibition (IC50; nM)
T3 construct: made in house; host or cells: E. coli
T3 sequence (P39877 21-138): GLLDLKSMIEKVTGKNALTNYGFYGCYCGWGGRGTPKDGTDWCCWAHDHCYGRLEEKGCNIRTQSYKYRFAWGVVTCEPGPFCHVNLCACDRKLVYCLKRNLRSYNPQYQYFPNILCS

sPLA2-X protein [4] = biological target: T1, sPLA2-X protein; test: SPR single cycle kinetic binding analysis against sPLA2-X; set-up: His tag (implied by capture on NTA surface and by anti-His antibody); conditions: protein captured cross-linked on NTA surface, 1:1 fit
Procedure: sPLA2-X protein was captured on flow cell 2-4 on activated NTA surface (NTA Series S Sensorchip (Cytiva)) after dilution in 1×HBS-EP+buffer (Cytiva), 10 mM CaCl2 to 0.01 mg/mL with a flow rate of 5 μL/min for 60 sec. Single cycle kinetic binding analysis was performed using 10 mM stock solution of LY531590 (Cayman Chemical, item #18267) (prepared in DMSO diluted 1:5 in running buffer (lx HBS-EP+buffer (Cytiva)+10 mM CaCl2+2% DMSO) from 10 to 0.016 μM. Flow cell 1 was used as a reference surface and 350 mM EDTA (Cytiva) was used to regenerate the surface. DMSO solvent correction was included. A 1:1 fit was used for the kinetics analysis.
SPLA2-X protein was captured cross-linked on flow cell 2, 3, and 4 with activated NTA surface (NTA Series S Sensorchip (Cytiva)) at 0.01 mg/mL with a flow rate of […] for 60 sec. Single cycle kinetic binding analysis was performed using a 50 mM stock solution of Compound 5 (prepared in DMSO) diluted 1:5 in running buffer (1×HIBS-EP+buffer (Cytiva)+10 mM CaCl2+2% o DMSO) from 800 to 1.2 nMV. Flow cell 1 was used as a reference surface. DMSO solvent correction was included. A 1:1 fit was used for the kinetics and steady state affinity analysis.

SMILES | IC50 (sPLA2-X protein [1]) | IC50 [2] | IC50 [3] | Rmax (sPLA2-X protein [4]) | Kd (sPLA2-X protein [4]; kinetics and steady state affinity)
NC(=O)c1sc2ccc(OC(F)(F)F)cc2c1-c1cccc(CCC(=O)O)c1 [Compound 5, 3-(3-(2-carbamoyl-5-(trifluoromethoxy)benzo[b]thiophen-3-yl)phenyl)propanoic acid] | 20 to 50 nM | 200 to 500 nM | 1500 to 5000 nM | 2.13 | 8.02 nM
NC(=O)c1cc2ccc(OC(F)(F)F)cc2n1-c1cccc(N2CC[C@@H]2C(=O)O)n1 [Compound 70, (R)-1-(6-(2-carbamoyl-6-(trifluoromethoxy)-1H-indol-1-yl)pyridin-2-yl)azetidine-2-carboxylic acid] | < 20 nM | > 1000 nM | 500 to 1500 nM |  | 
NC(=O)c1oc2ccc(OC(F)(F)F)cc2c1-c1cccc(CCC(=O)O)c1 [Compound 17, 3-(3-(2-carbamoyl-5-(trifluoromethoxy)benzofuran-3-yl)phenyl)propanoic acid] | > 200 nM | > 1000 nM | > 5000 nM |  | 
CS(=O)(=O)OCC(F)(F)c1cccc(-n2c(C(N)=O)cc3ccc(OC(F)(F)F)cc32)c1 [Compound 47, 2-(3-(2-carbamoyl-6-(trifluoromethoxy)-1H-indol-1-yl)phenyl)-2,2-difluoroethyl methanesulfonate] | > 200 nM | > 1000 nM | > 5000 nM |  | 
NC(=O)c1nc2ccc(OC(F)(F)F)cc2n1-c1cccc(C2CC2C(=O)O)n1 (stereo not drawn) [Compound 58, trans-2-(6-(2-carbamoyl-6-(trifluoromethoxy)-1H-benzo[d]imidazol-1-yl)pyridin-2-yl)cyclopropane-1-carboxylic acid] | > 200 nM | > 1000 nM | > 5000 nM |  | 
CC(C)(C)OC(=O)N1CC(CC(=O)O)c2cc(-n3c(C(N)=O)cc4ccc(OC(F)(F)F)cc43)ccc21 (centres unmarked) [Compound 11, 2-(1-(tert-butoxycarbonyl)-5-(2-carbamoyl-6-(trifluoromethoxy)-1H-indol-1-yl)indolin-3-yl)acetic acid] | 50 to 200 nM | > 1000 nM | > 5000 nM |  | 
NC(=O)c1cc2ccc(OC(F)(F)F)cc2n1-c1cccc(SCC(=O)O)n1 [Compound 44, 2-((6-(2-carbamoyl-6-(trifluoromethoxy)-1H-indol-1-yl)pyridin-2-yl)thio)acetic acid] | < 20 nM | > 1000 nM | > 5000 nM |  | 

More lines, now with the values ahead:

IC50 (sPLA2-X protein [1]) | IC50 [2] | IC50 [3] | Rmax (sPLA2-X protein [4]) | Kd (sPLA2-X protein [4]; kinetics and steady state affinity) | SMILES
20 to 50 nM | > 1000 nM | > 5000 nM |  |  | C[C@@]1(c2cccc(-n3c(C(N)=O)cc4ccc(OC(F)(F)F)cc43)c2)C[C@H]1C(=O)O (relative stereo) [Compound 38b, trans-2-(3-(2-carbamoyl-6-(trifluoromethoxy)-1H-indol-1-yl)phenyl)-2-methylcyclopropane-1-carboxylic acid]
> 200 nM | > 1000 nM | > 5000 nM |  |  | NC(=O)c1cc2ccc(OC(F)(F)F)cc2n1-c1cccc(CC2(C(=O)O)CC2)c1 [Compound 19, 1-(3-(2-carbamoyl-6-(trifluoromethoxy)-1H-indol-1-yl)benzyl)cyclopropane-1-carboxylic acid]
> 200 nM | > 1000 nM | > 5000 nM |  |  | N[C@@H](CC(=O)O)c1cccc(-n2c(C(=O)O)cc3ccc(OC(F)(F)F)cc32)c1 [Compound 41, (S)-1-(3-(1-amino-2-carboxyethyl)phenyl)-6-(trifluoromethoxy)-1H-indole-2-carboxylic acid]
> 200 nM | > 1000 nM | > 5000 nM |  |  | NC(=O)c1cc2ccc(OC(F)(F)F)cc2n1-c1ccc2c(c1)OCC2CC(=O)O (centres unmarked) [Compound 9, 2-(6-(2-carbamoyl-6-(trifluoromethoxy)-1H-indol-1-yl)-2,3-dihydrobenzofuran-3-yl)acetic acid]
< 20 nM | 200 to 500 nM | 500 to 1500 nM |  |  | CC(C)(Sc1cccc(-n2c(C(N)=O)cc3ccc(OC(F)(F)F)cc32)c1)C(=O)O [Compound 2, 2-((3-(2-carbamoyl-6-(trifluoromethoxy)-1H-indol-1-yl)phenyl)thio)-2-methylpropanoic acid]
> 200 nM | > 1000 nM | > 5000 nM |  |  | NC(=O)c1cc2ccc(OC(F)(F)F)cc2n1-c1cccc(C[C@H](N)C(=O)O)c1 [Compound 24, (S)-2-amino-3-(3-(2-carbamoyl-6-(trifluoromethoxy)-1H-indol-1-yl)phenyl)propanoic acid TFA salt]
> 200 nM | > 1000 nM | > 5000 nM |  |  | NC(=O)c1cc2ccc(OC(F)(F)F)cc2n1-c1cccc([C@@H](N)CC(=O)O)c1 [Compound 40, (S)-3-amino-3-(3-(2-carbamoyl-6-(trifluoromethoxy)-1H-indol-1-yl)phenyl)propanoic acid]
> 200 nM | > 1000 nM | > 5000 nM |  |  | NC(=O)c1cc2ccc(OC(F)(F)F)cc2n1-c1cccc([C@H](N)CC(=O)O)c1 [Compound 42, (R)-3-amino-3-(3-(2-carbamoyl-6-(trifluoromethoxy)-1H-indol-1-yl)phenyl)propanoic acid]
